Measurements reported in ChEMBL document CHEMBL3046093, “Effect of doses of fungicides and plant resistance activators on the control of Rhizoctonia foliar blight of soybean, and on Rhizoctonia solani AG1-IA in vitro development” (Crop Prot, 2006).
Converted amounts (≈) assume the structure as drawn. The source made the active and inactive calls. The rule behind the calls is not given here.

How the values were obtained:
Glycine max [1] = assay: Induction of systemic acquired resistance in Glycine max (soybean) plant infected with Rhizoctonia solani AG-1 IA assessed as reduction in disease severity at 25 mg a.i/l applied as spray on day 5 prior to inoculation measured after 10 days relative to control; format: functional, organism-based
Rhizoctonia solani [2] = assay: Antifungal activity against Rhizoctonia solani AG-1 IA assessed as mycelial growth at 1 mg/l (reference value: 40 mm); format: functional
Glycine max [3] = assay: Induction of systemic acquired resistance in Glycine max (soybean) plant infected with Rhizoctonia solani AG-1 IA assessed as reduction in disease severity at 12.5 mg a.i/l applied as spray on day 10 prior to inoculation measured after 5 days relative to control; format: functional; design: scale not given: the % may be the effect or the level left
Rhizoctonia solani [4] = assay: Antifungal activity against Rhizoctonia solani AG-1 IA assessed as mycelial growth at 0.1 mg/l (reference value: 40 mm); format: functional
Rhizoctonia solani [5] = assay: Antifungal activity against Rhizoctonia solani AG-1 IA assessed as inhibition of mycelial growth at < 10 mg/l relative to control; format: functional, organism-based
Glycine max [6] = assay: Induction of systemic acquired resistance in Glycine max (soybean) plant infected with Rhizoctonia solani AG-1 IA assessed as reduction in disease severity at 12.5 mg a.i/l applied as spray on day 10 prior to inoculation measured after 10 days relative to control; format: functional; design: scale not given: the % may be the effect or the level left
Rhizoctonia solani [7] = assay: Antifungal activity against Rhizoctonia solani AG-1 IA assessed as reduction of mycelial growth at 10 mg/l relative to control; format: functional; design: scale not given: the % may be the effect or the level left
Rhizoctonia solani [8] = assay: Antifungal activity against Rhizoctonia solani AG-1 IA assessed as reduction of mycelial growth at 100 mg/l relative to control; format: functional; design: scale not given: the % may be the effect or the level left
Rhizoctonia solani [9] = assay: Curative effect against Rhizoctonia solani AG-1 IA infected soybean plant at 50 g a.i/ha applied as spray at V5 to V6 growth stage post inoculation measured after 5 to 10 days under greenhouse condition relative to control; format: functional, organism-based
Rhizoctonia solani [10] = assay: Fungicidal activity against Rhizoctonia solani AG-1 IA assessed as mycelial radial growth at 10 mg/l (reference value: 40 mm); format: functional
Rhizoctonia solani [11] = assay: Fungicidal activity against Rhizoctonia solani AG-1 IA assessed as mycelial radial growth at 1 mg/l (reference value: 40 mm); format: functional
Rhizoctonia solani [12] = assay: Fungicidal activity against Rhizoctonia solani AG-1 IA assessed as mycelial radial growth at 0.1 mg/l (reference value: 40 mm); format: functional
Rhizoctonia solani [13] = assay: Fungicidal activity against Rhizoctonia solani AG-1 IA assessed as inhibition of mycelial radial growth; format: functional, organism-based
Rhizoctonia solani [14] = assay: Protective effect against Rhizoctonia solani AG-1 IA infected soybean plant at 50 g a.i/ha applied as spray at V5 to V6 growth stage prior to inoculation measured after 5 to 10 days under greenhouse condition relative to control; format: functional, organism-based
Rhizoctonia solani [15] = assay: Fungicidal activity against Rhizoctonia solani AG-1 IA assessed as mycelial radial growth at 100 mg/l (reference value: 40 mm); format: functional
Rhizoctonia solani [16] = assay: Protective effect against Rhizoctonia solani AG-1 IA infected soybean plant at 750 g a.i/ha applied as spray at V5 to V6 growth stage prior to inoculation measured after 5 to 10 days under greenhouse condition relative to control; format: functional, organism-based
Rhizoctonia solani [17] = assay: Protective effect against Rhizoctonia solani AG-1 IA infected soybean plant at 100 g a.i/ha applied as spray at V5 to V6 growth stage prior to inoculation measured after 5 to 10 days under greenhouse condition relative to control; format: functional, organism-based
Rhizoctonia solani [18] = assay: Curative effect against Rhizoctonia solani AG-1 IA infected soybean plant at 100 g a.i/ha applied as spray at V5 to V6 growth stage post inoculation measured after 5 to 10 days under greenhouse condition relative to control; format: functional, organism-based
Glycine max [19] = assay: Phytotoxicity in Glycine max (soybean) plant assessed as dwarfing at 200 g a.i/ha; format: organism-based; conditions: in vivo
Glycine max [20] = assay: Phytotoxicity in Glycine max (soybean) plant assessed as leaf burning at 200 g a.i/ha; format: organism-based; conditions: in vivo
[21] = Rhizoctonia solani, AG-1 IA, read-out: EC50

Compound | Activity (Rhizoctonia solani [10]) [mm] | Activity (Rhizoctonia solani [11]) [mm] | Activity (Rhizoctonia solani [12]) [mm] | EC90 (Rhizoctonia solani [13]; Rhizoctonia solani, AG-1 IA) [µg/mL] | EC50 (Rhizoctonia solani [13]; [21]) [µg/mL] | Activity (Rhizoctonia solani [15]) [mm] | further results
CSC(=O)c1cccc2nnsc12 [ACIBENZOLAR-S-METHYL] |  |  |  |  |  |  | Activity (Glycine max [1]): Active; Activity (Rhizoctonia solani [2]): 40 mm; Activity (Glycine max [3]): 28.5%; Activity (Rhizoctonia solani [4]): 40 mm; inhibition (Rhizoctonia solani [5]): inactive; Activity (Glycine max [6]): 36%; Activity (Rhizoctonia solani [7]): 19%; Activity (Rhizoctonia solani [8]): 55.2%
CO/C=C(/C(=O)OC)c1ccccc1Oc1cc(Oc2ccccc2C#N)ncn1 [AZOXYSTROBIN] | 13.1 | 16 | 15.2 | 33.1 (≈ 82 µM) | 0.668 (≈ 1.66 µM) | 10.3 | Activity (Rhizoctonia solani [9]): Active; Activity (Rhizoctonia solani [14]): Active
CCCCNC(=O)n1c(NC(=O)OC)nc2ccccc21 [BENOMYL] | 0 | 9.6 | 38.8 | 17.4 (≈ 60 µM) | 0.352 (≈ 1.21 µM) | 0 | 
Clc1ccc(C2(Cn3cncn3)CC(Br)CO2)c(Cl)c1 (configuration not stated) [BROMUCONAZOLE] | 3.6 | 8.2 | 17.9 | 4.81 (≈ 12.8 µM) | 0.097 (≈ 0.257 µM) | 0.7 | 
COC(=O)Nc1nc2ccccc2[nH]1 [CARBENDAZIM] | 0 | 1.5 | 39 | 8.41 (≈ 44 µM) | 0.17 (≈ 0.889 µM) | 0 | 
N#Cc1c(Cl)c(Cl)c(Cl)c(C#N)c1Cl [CHLOROTHALONIL] | 7.6 | 19.3 | 30 | 49.4 (≈ 186 µM) | 0.998 (≈ 3.75 µM) | 4.7 | 
CC1COC(Cn2cncn2)(c2ccc(Oc3ccc(Cl)cc3)cc2Cl)O1 (configuration not stated) [DIFENOCONAZOLE] | 2.7 | 5 | 6.6 | 1.13 (≈ 2.78 µM) | 0.023 (≈ 0.0566 µM) | 1.5 | 
O=[N+]([O-])c1cc(C(F)(F)F)c(Cl)c([N+](=O)[O-])c1Nc1ncc(C(F)(F)F)cc1Cl [FLUAZINAM] | 4.3 | 5.1 | 9.1 | 2.27 (≈ 4.89 µM) | 0.046 (≈ 0.0989 µM) | 3.4 | Activity (Rhizoctonia solani [16]): Active
N#Cc1c[nH]cc1-c1cccc2c1OC(F)(F)O2 [FLUDIOXONIL] | 0 | 0 | 7.1 | 0.161 (≈ 0.649 µM) | 0.003 (≈ 0.0121 µM) | 0 | 
CC(C)NC(=O)N1CC(=O)N(c2cc(Cl)cc(Cl)c2)C1=O [IPRODIONE] | 0 | 5.5 | 39 | 11.8 (≈ 35.6 µM) | 0.237 (≈ 0.718 µM) | 0 | 
CO/N=C(/C(=O)OC)c1ccccc1COc1ccccc1C [KRESOXIM-METHYL] | 25.1 | 26.9 | 26 | 490 (≈ 1560 µM) | 9.9 (≈ 31.6 µM) | 22 | 
CC12CC1(C)C(=O)N(c1cc(Cl)cc(Cl)c1)C2=O (configuration not stated) [PROCYMIDONE] | 1.2 | 17.6 | 37.2 |  |  | 0.6 | 
COC(=O)N(OC)c1ccccc1COc1ccn(-c2ccc(Cl)cc2)n1 [PYRACLOSTROBIN] | 5.4 | 8.1 | 17.8 | 4.67 (≈ 12.1 µM) | 0.094 (≈ 0.242 µM) | 0 | Activity (Rhizoctonia solani [17]): Active; Activity (Rhizoctonia solani [18]): Active
O=C(O)c1ccccc1O [SALICYLIC ACID] |  |  |  |  |  |  | Activity (Rhizoctonia solani [2]): 40 mm; Activity (Rhizoctonia solani [4]): 40 mm; inhibition (Rhizoctonia solani [5]): inactive
CC(C)(C)C(O)(CCc1ccc(Cl)cc1)Cn1cncn1 (configuration not stated) [TEBUCONAZOLE] | 3.3 | 7.6 | 13.5 | 2.42 (≈ 7.85 µM) | 0.049 (≈ 0.159 µM) | 0 | Activity (Glycine max [19]): Toxic; Activity (Glycine max [20]): Toxic
c1ccc2[nH]c(-c3cscn3)nc2c1 [THIABENDAZOLE] | 0 | 7.3 | 36.1 | 10.9 (≈ 54.2 µM) | 0.22 (≈ 1.09 µM) | 0 | 
COC(=O)NC(=S)Nc1ccccc1NC(=S)NC(=O)OC [THIOPHANATE METHYL] | 20.8 | 36.7 | 39.6 | 537 (≈ 1570 µM) | 10.8 (≈ 31.7 µM) | 0.4 | 
TRIPHENYLSTANNANOL [listing 1 of 2 here] |  |  |  |  |  |  | EC50 (Rhizoctonia solani [13]): 0.112 µg/mL
TRIPHENYLSTANNANOL [listing 2 of 2 here] | 6.4 | 10.6 | 14.1 |  |  | 1 | EC90 (Rhizoctonia solani [13]): 5.55 µg/mL
